Where two headings read alike, the source gives them in different places.
Assay: Mitochondrial toxicity (Glu/Gal) assay
Type: cell-based
Conditions: for Δ IC50, glu/IC50, gal: ratio IC50 glu / IC50 gal; for Score: mitotoxicity score, Glu/Gal assay
Source text: The compounds of the invention/examples may have advantages associated with in vitro potency, kill kinetics (i.e. bactericidal effect) in vitro, PK properties, food effect, safety/toxicity (including liver toxicity, coagulation, 5-LO oxygenase), metabolic stability, Ames II negativity, MNT negativity, aqueous based solubility (and ability to formulate) and/or cardiovascular effect e.g. on animals (e.g. anesthetized guinea pig). Data that is generated/calculated may be obtained using standard methods/assays, for instance that are available in the literature or which may be performed by a supplier (e.g. Microsomal Stability Assay—Cyprotex, Mitochondrial toxicity (Glu/Gal) assay—Cyprotex, as well as literature CYP cocktail inhibition assays). GSH can be measured (reactive metabolites, glucuronidation) to observe if a dihydrodiol is observed by LCMS (fragmentation ions), which would correspond to a dihydroxylation on the core heterocycle.

[1] = galactose medium (Glu/Gal mitotoxicity assay), read-out: IC50, gal
[2] = glucose medium (Glu/Gal mitotoxicity assay), read-out: IC50, glu

CCc1nc2ncc(C)cn2c1C(=O)NCc1nnc(-c2nc3n(n2)CCN(S(=O)(=O)C(F)(F)F)C3)s1 [Compound 76] gave an IC50 (read-out: IC50, gal) of over 200 µM and an IC50 (read-out: IC50, glu) of over 200 µM.

Work on CCc1nc2ncc(C(C)C)cn2c1C(=O)NCc1ccc(-c2nc3n(n2)CCN(S(=O)(=O)C(F)(F)F)C3)cc1 [Compound 26] yielded an IC50 [1] of over 200 µM and an IC50 [2] of over 200 µM.

Molecule CCc1nc2ncc(Cl)cn2c1C(=O)NCc1cnc(-c2nc3n(n2)CCN(S(=O)(=O)C(F)(F)F)C3)c(F)c1 [Compound 77] has an IC50 (read-out: IC50, gal) of over 200 µM and an IC50 (read-out: IC50, glu) of over 200 µM.

With Cc1c(-c2ccc(CNC(=O)c3c(C(F)(F)F)nc4ccccn34)cc2)nn2c1CN(S(=O)(=O)C(F)(F)F)CC2 [Compound 121] the “Δ IC50, glu/IC50, gal” value was over 4.31, the IC50 (read-out: IC50, gal) was 46.4 µM and the IC50 (read-out: IC50, glu) was over 200 µM.

Molecule CCc1nc2ccc(C)cn2c1C(=O)NCc1ccc(-c2nc3n(n2)CCN(C(=O)C(F)(F)F)C3)cc1 [Compound 53] has an IC50 [1] of over 200 µM and an IC50 [2] of over 200 µM.

Work on CCc1nc2ncc(C)cn2c1C(=O)NCc1ccc(-c2cn3c(n2)CN(S(=O)(=O)C(F)(F)F)CC3)cc1 [Compound 89] yielded an IC50 [1] of over 200 µM and an IC50 [2] of over 200 µM.

In the case of O=C(NCc1ccc(-c2nc3n(n2)CCN(S(=O)(=O)C(F)(F)F)C3)cc1)c1c(C2CC2)nc2ncc(Cl)cn12 [Compound 103], the Score is reported as “[x]0”, the “Δ IC50, glu/IC50, gal” value is reported as over 1.3 and the IC50 (read-out: IC50, gal) is reported as 38.6 µM. The IC50 (read-out: IC50, glu) was over 50 µM.

For CCc1nc2ncc(C)cn2c1C(=O)NCc1ccc(-c2nc3n(n2)CCN(CCC#N)C3)cc1 [Compound 61], the IC50 [1] was over 200 µM and the IC50 [2] was over 200 µM.

In the case of CCc1nc2ncc(Cl)cn2c1C(=O)NCc1ccc(-c2cc3n(n2)CCN(S(=O)(=O)C(F)(F)F)C3)cc1 [Compound 91], the Score is reported as “[x]3”, the “Δ IC50, glu/IC50, gal” value is reported as over 12.85 and the IC50 (read-out: IC50, gal) is reported as 15.6 µM. For the same molecule, the IC50 (read-out: IC50, glu) was over 200 µM.

In the case of CCc1nc2cc(C)c(Cl)cn2c1C(=O)NCc1cnc(-c2nc3n(n2)CCN(S(=O)(=O)C(F)(F)F)C3)c(F)c1 [Compound 20], the Score is reported as “[x]1”, the “Δ IC50, glu/IC50, gal” value is reported as over 1.3 and the IC50 (read-out: IC50, gal) is reported as 154 µM. The IC50 (read-out: IC50, glu) was over 200 µM.

For CCc1nc2ncc(C)cn2c1C(=O)NCc1ccc(-c2nc3n(n2)CCN(S(=O)(=O)C(F)(F)F)C3)cc1 [Compound 110], the IC50 [1] was over 100 µM and the IC50 [2] was over 100 µM.

With Cc1cnc2nc(C)c(C(=O)NCc3ccc(-c4nc5n(n4)CCN(S(=O)(=O)C(F)(F)F)C5)cc3)n2c1 [Compound 29] the IC50 [1] was over 200 µM and the IC50 [2] was over 200 µM.

In the case of CCc1nc2ncc(C)cn2c1C(=O)NCc1ccc(N2CCC(c3nc4n(n3)CCN(S(=O)(=O)C(F)(F)F)C4)CC2)cc1 [Compound 60], the “Δ IC50, glu/IC50, gal” value is reported as over 3.56, the IC50 (read-out: IC50, gal) is reported as 56.2 µM and the IC50 (read-out: IC50, glu) is reported as over 200 µM.

With CCc1nc2cc(Cl)c(C)cn2c1C(=O)NCc1ccc(-c2nc3n(n2)CCN(S(=O)(=O)C(F)(F)F)C3)cc1 [Compound 25] the “Δ IC50, glu/IC50, gal” value was over 2.26, the IC50 (read-out: IC50, gal) was 22.1 µM and the IC50 (read-out: IC50, glu) was over 50 µM.

Molecule CCc1nc2ncc(F)cn2c1C(=O)NCc1ccc(-c2nc3n(n2)CCN(S(=O)(=O)C(F)(F)F)C3)c(F)c1 [Compound 17] has an IC50 [1] of over 200 µM and an IC50 [2] of over 200 µM.

In the case of CCc1nc2ncc(C)cn2c1C(=O)NCc1cccc(-c2nc3n(n2)CCN(S(=O)(=O)C(F)(F)F)C3)c1 [Compound 67], the Score is reported as “[x]1”, the “Δ IC50, glu/IC50, gal” value is reported as over 1.34 and the IC50 (read-out: IC50, gal) is reported as 149 µM. It also gave an IC50 (read-out: IC50, glu) of over 200 µM.

In the case of Cc1cn2c(C(=O)NCc3ccc(-c4nc5n(n4)CCN(S(=O)(=O)C(F)(F)F)C5)cc3)c(C)nc2s1 [Compound 32], the Score is reported as “[x]3”, the “Δ IC50, glu/IC50, gal” value is reported as over 12.72 and the IC50 (read-out: IC50, gal) is reported as 15.7 µM. For the same molecule, the IC50 (read-out: IC50, glu) was over 200 µM.

In the case of Cc1ccc2nc(C3CC3)c(C(=O)NCc3ccc(-c4nc5n(n4)CCN(S(=O)(=O)C(F)(F)F)C5)cc3)n2c1 [Compound 30], the Score is reported as “[x]1”, the “Δ IC50, glu/IC50, gal” value is reported as 1.35 and the IC50 (read-out: IC50, gal) is reported as 71.1 µM. For the same molecule, the IC50 (read-out: IC50, glu) was 95.7 µM.

In the case of CCc1nc2cc(N)c(Cl)cn2c1C(=O)NCc1cnc(-c2nc3n(n2)CCN(S(=O)(=O)C(F)(F)F)C3)c(F)c1 [Compound 78], the IC50 (read-out: IC50, gal) is reported as over 200 µM and the IC50 (read-out: IC50, glu) is reported as over 200 µM.

Cc1cnc2nc(C3CC3)c(C(=O)NCc3ccc(-c4cc5n(n4)CCN(C)C5)cc3)n2c1 [Compound 100] gave an IC50 [1] of over 200 µM and an IC50 [2] of over 200 µM.

From patent publication US20240199651A1, “ANTIBACTERIAL COMPOUNDS” (JANSSEN SCIENCES IRELAND UNLIMITED COMPANY, priority 2021, published 2024)
